Data: patent US20220267268A1, “NEW TRICYCLIC 5-HT2 ANTAGONISTS” (Anamar AB, priority 2019, published 2022)
Where a name gives a salt, the structure may show the parent alone.

Target: T1, 5-HT2B receptor (Homo sapiens, UniProt P41595)
T1 construct: host or cells: CHO-K1
Experiment: 5-HT2B receptor binding, ligand displacement assay with 3H-LSD radioligand
Conditions: human receptor in CHO-K1; for inhibition at 0.01 µM: 10 nM compound; for inhibition at 0.001 µM: 1 nM compound; for inhibition at 0.1 µM: 100 nM compound
Protocol: 5-HT2B receptor binding (performed at Eurofins Panlabs Taiwan, Ltd.) to human receptor protein expressed in CHO-K1 cells was determined in a ligand displacement assay using ^3H-lysergic acid diethylamide (LSD) as radioligand and ketanserine as a standard reference compound, or alternatively*, with ^3H-mesulergine and SB 206553 as reference. Data is presented as % displacement of radioligand at indicated compound concentrations, see Table 1.

T1 sequence (P41595 whole entry): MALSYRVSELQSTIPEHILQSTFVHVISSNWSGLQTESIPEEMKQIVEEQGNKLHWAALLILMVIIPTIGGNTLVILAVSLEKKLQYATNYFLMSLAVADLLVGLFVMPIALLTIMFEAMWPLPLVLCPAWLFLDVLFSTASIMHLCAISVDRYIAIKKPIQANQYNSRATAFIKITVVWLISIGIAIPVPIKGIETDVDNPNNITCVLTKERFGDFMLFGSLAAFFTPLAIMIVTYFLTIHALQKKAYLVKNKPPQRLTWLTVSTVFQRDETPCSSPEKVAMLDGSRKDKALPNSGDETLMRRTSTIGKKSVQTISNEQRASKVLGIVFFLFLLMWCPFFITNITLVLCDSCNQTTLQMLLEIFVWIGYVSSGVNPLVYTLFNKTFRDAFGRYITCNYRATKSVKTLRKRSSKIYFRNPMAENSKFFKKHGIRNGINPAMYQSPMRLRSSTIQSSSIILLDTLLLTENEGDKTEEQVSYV

Compound `C#CCNC(=N)N1CC(C)c2c1ccc1c(Br)cccc21` (stereo not shown) [Example 18, 6-Bromo-1-methyl-N-(prop-2-yn-1-yl)-1,2-dihydro-3H-benzo[e]indole-3-carboximidamide 2,2,2-trifluoroacetic acid salt] has an inhibition at 0.01 µM of 104%.
In the case of `CCCCNC(=N)N1CC(C)c2c1ccc1ccccc21` (stereo not shown) [Example 7, N-Butyl-1-methyl-1,2-dihydro-3H-benzo[e]indole-3-carboximidamide hydrochloride], the inhibition at 0.001 µM is reported as 32%, the inhibition at 0.01 µM is reported as 77% and the inhibition at 0.1 µM is reported as 96%.
With `CC1CN(C(=N)Nc2ccc(F)cc2)c2ccc3c(Br)cccc3c21` (stereo not shown) [Example 30, 6-Bromo-N-(4-fluorophenyl)-1-methyl-1,2-dihydro-3H-benzo[e]indole-3-carboximidamide 2,2,2-trifluoroacetic acid salt] the inhibition at 0.01 µM was 105%.
Compound `CC1CN(C(=N)NCC(F)(F)F)c2ccc3c(Br)cccc3c21` (stereo not shown) [Example 22, 6-Bromo-1-methyl-N-(2,2,2-trifluoroethyl)-1,2-dihydro-3H-benzo[e]indole-3-carboximidamide 2,2,2-trifluoroacetic acid salt] has an inhibition at 0.01 µM of 95%.
`CC1CN(C(=N)NCc2ccc(F)c(F)c2)c2ccc3ccccc3c21` (stereo not shown) [Example 10, N-(3,4-Difluorobenzyl)-1-methyl-1,2-dihydro-3H-benzo[e]indole-3-carboximidamide hydrochloride] was tested, and the inhibition at 0.001 µM was 7%, the inhibition at 0.01 µM was 50% and the inhibition at 0.1 µM was 91%.
For `CC1CN(C(=N)N)c2ccc3c(C4CC4)cccc3c21` (stereo not shown) [Example 42, 6-Cyclopropyl-1-methyl-1,2-dihydro-3H-benzo[e]indole-3-carboximidamide hydrochloride], the inhibition at 0.001 µM was 1%, the inhibition at 0.01 µM was 56% and the inhibition at 0.1 µM was 96%.
For `CC1CN(C(=N)NCc2ccc(Cl)cc2)c2ccc3ccccc3c21` (stereo not shown) [Example 9, N-(4-Chlorobenzyl)-1-methyl-1,2-dihydro-3H-benzo[e]indole-3-carboximidamide hydrochloride], the inhibition at 0.001 µM was 26%, the inhibition at 0.01 µM was 55% and the inhibition at 0.1 µM was 95%.
`COc1cc2c(c3ccccc13)C(C)CN2C(=N)N` (stereo not shown) [Example 44, 5-Methoxy-1-methyl-1,2-dihydro-3H-benzo[e]indole-3-carboximidamide hydrochloride] gave an inhibition at 0.001 µM of 9%, an inhibition at 0.01 µM of 13% and an inhibition at 0.1 µM of 70%.
`CCCc1cccc2c3c(ccc12)N(C(=N)N)CC3C` (stereo not shown) [Example 43, 1-Methyl-6-propyl-1,2-dihydro-3H-benzo[e]indole-3-carboximidamide hydrochloride] was tested, and the inhibition at 0.001 µM was 21%, the inhibition at 0.01 µM was 70% and the inhibition at 0.1 µM was 96%.
`CC1CN(C(=N)NCc2ccccc2)c2ccc3ccccc3c21` (stereo not shown) [Example 8, N-Benzyl-1-methyl-1,2-dihydro-3H-benzo[e]indole-3-carboximidamide hydrochloride] was tested, and the inhibition at 0.001 µM was 30%, the inhibition at 0.01 µM was 80% and the inhibition at 0.1 µM was 99%.
With `CC1CN(C(=N)NCc2ccc(F)cc2)c2ccc3c(Br)cccc3c21` (stereo not shown) [Example 26, 6-Bromo-N-(4-fluorobenzyl)-1-methyl-1,2-dihydro-3H-benzo[e]indole-3-carboximidamide 2,2,2-trifluoroacetic acid salt] the inhibition at 0.001 µM was 43%, the inhibition at 0.01 µM was 90% and the inhibition at 0.1 µM was 98%.
With `CC1CN(C(=N)N)c2ncc3ccccc3c21` (stereo not shown) [Example 4, 1-Methyl-1,2-dihydro-3H-pyrrolo[2,3-c]isoquinoline-3-carboximidamide hydrochloride] the inhibition at 0.001 µM was -1%, the inhibition at 0.01 µM was 16% and the inhibition at 0.1 µM was 64%.
For `CCCCNC(=N)N1CC(C)c2c1ccc1c(Br)cccc21` (stereo not shown) [Example 15, 6-Bromo-N-butyl-1-methyl-1,2-dihydro-3H-benzo[e]indole-3-carboximidamide 2,2,2-trifluoroacetic acid salt], the inhibition at 0.01 µM was 103%.
